The source of these data is ChEMBL document CHEMBL1123664, “Preparation and antitumor activity of new mitomycin A analogues” (J Med Chem, 1987).

A short description of data set [1]: Partition coefficient (logP). The note with it: octanol/water. The class given is physicochemical.
Data set [2] relates to B16. As to the kind of experiment: Antitumor activity against subcutaneously B16 melanoma cells in mice expressed as ratio of median survival time for treated group to that of control group at an optimal dose of 1.6 mg/kg. The class given is functional, Mus musculus. The settings on record: route subcutaneous.
Data set [3] relates to B16. The data set is described as follows: Antitumor activity against subcutaneously B16 melanoma cells in mice at an optimal dose of 1.6 mg/kg expressed as […] effective dose. It is filed as functional. The settings on record: Mus musculus, B16, sc, route subcutaneous, read-out: MED.
For data set [4], the system named is P388. The data set is described as follows: Antitumor activity against intraperitoneally implanted P388 leukemia cells in mice expressed as ratio of median survival time for treated group to that of control group at an optimal dose of 3.2 mg/kg. It is filed as functional, Mus musculus. The note with it: route intraperitoneal.
In data set [5] the test system is P388. As to the kind of experiment: Antitumor activity against intraperitoneally implanted P388 leukemia cells in mice at an optimal dose of 3.2 mg/kg expressed as […] effective dose. The class given is functional. The settings on record: Mus musculus, P388, ip, route intraperitoneal, read-out: MED.
Data set [6] has as its system B16. The data set is described as follows: Antitumor activity against subcutaneously B16 melanoma cells in mice expressed as ratio of median survival time for treated group to that of control group at an optimal dose of 0.8 mg/kg. It is filed as functional, Mus musculus. The note with it: route subcutaneous.
Data set [7] deals with B16. The data set is described as follows: (§1) Antitumor activity against subcutaneously B16 melanoma cells in mice expressed as ratio of median survival time for treated group to that of control group at an optimal dose of 1-3 mg/kg. The class given is functional, Mus musculus.
The subject of data set [8] is B16. The description is as §1. It is filed as functional, Mus musculus. This is another data set of the same source.
The subject of data set [9] is B16. As to the kind of experiment: Antitumor activity against subcutaneously B16 melanoma cells in mice at an optimal dose of 0.8 mg/kg expressed as […] effective dose. It is filed as functional, Mus musculus. The note with it: route subcutaneous; for minimal effective dose at 0.8 mg/kg: Mus musculus, B16, sc, read-out: MED.
In data set [10] the test system is P388. The data set is described as follows: Antitumor activity against intraperitoneally implanted P388 leukemia cells in mice expressed as ratio of median survival time for treated group to that of control group at an optimal dose of 0.8 mg/kg. The settings on record: route intraperitoneal. It is filed as functional, Mus musculus.
The subject of data set [11] is P388. The data set is described as follows: Antitumor activity against intraperitoneally implanted P388 leukemia cells in mice at an optimal dose of 0.8 mg/kg expressed as […] effective dose. It is filed as functional. The note with it: Mus musculus, P388, ip, route intraperitoneal, read-out: MED.
In data set [12] the test system is P388. As to the kind of experiment: Antitumor activity against intraperitoneally implanted P388 leukemia cells in mice expressed as ratio of median survival time for treated group to that of control group at an optimal dose of 1.6 mg/kg. It is filed as functional, Mus musculus. The settings on record: route intraperitoneal.
Data set [13] has as its system P388. As to the kind of experiment: Antitumor activity against intraperitoneally implanted P388 leukemia cells in mice at an optimal dose of 1.6 mg/kg expressed as […] effective dose. It is filed as functional. The note with it: Mus musculus, P388, ip, route intraperitoneal, read-out: MED.
Data set [14] deals with B16. As to the kind of experiment: Antitumor activity against subcutaneously B16 melanoma cells in mice expressed as […] effective dose at an optimal dose of 0.8 mg/kg. It is filed as functional. The settings on record: Mus musculus, B16, sc, route subcutaneous, read-out: MED.
The test system of data set [15] is P388. As to the kind of experiment: Antitumor activity against intraperitoneally implanted P388 leukemia cells in mice expressed as ratio of median survival time for treated group to that of control group at an optimal dose of 0.4 mg/kg. It is filed as functional, Mus musculus. The note with it: route intraperitoneal.
Data set [16] relates to P388. As to the kind of experiment: Antitumor activity against intraperitoneally implanted P388 leukemia cells in mice at an optimal dose of 0.4 mg/kg expressed as […] effective dose. It is filed as functional, Mus musculus. The settings on record: Mus musculus, P388, ip, route intraperitoneal, read-out: MED.
Data set [17] concerns B16. The data set is described as follows: (§2) Antitumor activity against subcutaneously B16 melanoma cells in mice expressed as ratio of median survival time for treated group to that of control group at an optimal dose of 0.6 mg/kg. It is filed as functional, Mus musculus. The note with it: route subcutaneous.
Data set [18] has as its system B16. Described as §2. The class given is functional, Mus musculus. The settings on record: route subcutaneous. The source holds these as a separate data set.
In data set [19] the test system is B16. As to the kind of experiment: Antitumor activity against subcutaneously B16 melanoma cells in mice at an optimal dose of 0.6 mg/kg expressed as […] effective dose. It is filed as functional, Mus musculus. The settings on record: route subcutaneous.
Data set [20] deals with P388. The data set is described as follows: Antitumor activity against intraperitoneally implanted P388 leukemia cells in mice at an optimal dose of 0.8 mg/kg gexpressed as […] effective dose. It is filed as functional. The settings on record: Mus musculus, P388, ip, route intraperitoneal, read-out: MED.
Data set [21] deals with P388. As to the kind of experiment: Antitumor activity against intraperitoneally implanted P388 leukemia cells in mice expressed as ratio of median survival time for treated group to that of control group at an optimal dose 0.8 mg/kg. The class given is functional, Mus musculus. The note with it: route intraperitoneal.
Data set [22] has as its system P388. As to the kind of experiment: Antitumor activity against intraperitoneally implanted P388 leukemia cells in mice at an optimal dose 0.8 mg/kg expressed as […] effective dose. It is filed as functional. The note with it: Mus musculus, P388, ip, route intraperitoneal, read-out: MED.

Values joined by “and” are separate entries in the source; they are usually repeats but may differ in a detail not shown here. Equal values may be shown once.

With `CO[C@@]12C(COC(N)=O)C3=C(C(=O)C(C)=C(OCCN(C)C)C3=O)N1CC1NC12` (some centres undefined), the logP in [1] worked out at 0.46. Also, the T/C in data set [2] is reported as 220%; in [4], 281%. The minimal effective dose at 1.6 mg/kg in data set [3] worked out at 0.4 mg/kg. Besides, the minimal effective dose at 3.2 mg/kg in data set [5] is under 0.025 mg/kg.
Turning to `CO[C@@]12C(COC(N)=O)C3=C(C(=O)C(C)=C(OCC4CCCO4)C3=O)N1CC1NC12` (some centres undefined), the logP in [1] was found to be 1.29. The T/C is 212% and 198% in data set [6] (0.8 mg/kg); 147% in data set [7]; 133% in [8]; 239% in data set [10]. The minimal effective dose at 0.8 mg/kg in data set [9] was 0.2 mg/kg; in data set [11], under 0.05 mg/kg. This compound had an MED in data set [9] of 0.2 mg/kg.
Consider `CO[C@@]12C(COC(N)=O)C3=C(C(=O)C(C)=C(OCCCO)C3=O)N1CC1NC12` (some centres undefined), for which the logP in [1] was 0.14. The T/C in [12] stood at 175%. Further, the minimal effective dose at 1.6 mg/kg in data set [13] came to 0.05 mg/kg.
For `CO[C@@]12C(COC(N)=O)C3=C(C(=O)C(C)=C(OCCOCCO)C3=O)N1CC1NC12` (some centres undefined), the T/C in data set [6] is over 265%; in [15], 210%. Also, the minimal effective dose at 0.8 mg/kg in data set [14] is 0.4 mg/kg. Besides, in data set [16], the minimal effective dose at 0.4 mg/kg came out at 0.1 mg/kg.
With `COC(COC1=C(C)C(=O)C2=C(C1=O)C(COC(N)=O)[C@@]1(OC)C3NC3CN21)OC` (some centres undefined), the figures for the T/C in data set [2] and in data set [12] were 216% and 269%, respectively. For the same compound, the minimal effective dose at 1.6 mg/kg in data set [3] is 0.4 mg/kg; in [13], under 0.025 mg/kg.
On to `C#CCOC1=C(C)C(=O)C2=C(C1=O)C(COC(N)=O)[C@@]1(OC)C3NC3CN21` (some centres undefined), for which the logP in [1] came out at 0.74. Also, the T/C is listed as 204% in [6] and 150% in [10]. Also, the minimal effective dose at 0.8 mg/kg in data set [11] was under 0.05 mg/kg.
For `CO[C@@]12C(COC(N)=O)C3=C(C(=O)C(C)=C(OCCSCCO)C3=O)N1CC1NC12` (some centres undefined), in data set [1], the logP turned out to be 1.07. The T/C in data set [10] is on record as 250%. Besides, in data set [11], the minimal effective dose at 0.8 mg/kg is under 0.1 mg/kg.
`CO[C@@]12C(COC(N)=O)C3=C(C(=O)C(C)=C(OCC4CCC4)C3=O)N1CC1NC12` (some centres undefined) came in with a logP in data set [1] of 2.26. The T/C in data set [12] is reported as 144%. For the same compound, the minimal effective dose at 1.6 mg/kg in [13] came out at 0.4 mg/kg.
Turning to `CO[C@@]12C(COC(N)=O)C3=C(C(=O)C(C)=C(OCCO)C3=O)N1CC1C2N1C` (some centres undefined), the logP in [1] came out at 0.67. In [4], the T/C was 222%. Moreover, the minimal effective dose at 3.2 mg/kg in data set [5] came out at 0.05 mg/kg.
Turning to `CO[C@@]12C(COC(N)=O)C3=C(C(=O)C(C)=C(OCCSSCCO)C3=O)N1CC1NC12` (some centres undefined), the logP in [1] was 1.35. The T/C in data set [6] came out at 243%; in data set [7] it was 136%; in data set [12], 259%. Further, the minimal effective dose at 0.8 mg/kg in [9] turned out to be 0.2 mg/kg.
On to `CO[C@@]12C(COC(N)=O)C3=C(C(=O)C(C)=C(OCC4COC(C)(C)O4)C3=O)N1CC1NC12` (some centres undefined), for which, in data set [1], the logP stood at 0.82. Also, the T/C was 221% in data set [17]; 240% in [18]; 198% in data set [6]; 133% and 147% and 170% in [8]; 178% in data set [10]. The minimal effective dose at 0.8 mg/kg was 0.4 mg/kg in data set [9] and under 0.05 mg/kg in data set [20]. In addition, the MED in data set [19] was <0.3 mg/kg and 0.1 mg/kg.
Turning to `CO[C@@]12C(COC(N)=O)C3=C(C(=O)C(C)=C(OCC4CCCCO4)C3=O)N1CC1NC12` (some centres undefined), the logP in data set [1] is 1.79. Besides, the T/C in data set [21] was determined as 161%. In addition, the minimal effective dose at 0.8 mg/kg in [22] turned out to be 0.1 mg/kg.

As a reminder, the logP is the decadic logarithm of the partition coefficient of the neutral form, usually between octanol and water. A low value points to a more hydrophilic compound. Broadly, the T/C is the result in the treated group divided by that in the control group, in per cent.
